16 compounds from ChEMBL document CHEMBL1139626, “Total asymmetric synthesis of (-)-conduramine B-1 and of its enantiomer. N-Benzyl derivatives of conduramine B-1 are beta-glucosidase inhibitors” (Bioorg Med Chem Lett, 2005) can be followed below.

The source made the active and inactive calls. The calls are words filed in the database; no cut-off is given here.

The target in assay [1] is T1, Exo-1,4-beta-xylosidase xlnD (Aspergillus niger) (UniProt O00089).
T1 sequence (whole entry): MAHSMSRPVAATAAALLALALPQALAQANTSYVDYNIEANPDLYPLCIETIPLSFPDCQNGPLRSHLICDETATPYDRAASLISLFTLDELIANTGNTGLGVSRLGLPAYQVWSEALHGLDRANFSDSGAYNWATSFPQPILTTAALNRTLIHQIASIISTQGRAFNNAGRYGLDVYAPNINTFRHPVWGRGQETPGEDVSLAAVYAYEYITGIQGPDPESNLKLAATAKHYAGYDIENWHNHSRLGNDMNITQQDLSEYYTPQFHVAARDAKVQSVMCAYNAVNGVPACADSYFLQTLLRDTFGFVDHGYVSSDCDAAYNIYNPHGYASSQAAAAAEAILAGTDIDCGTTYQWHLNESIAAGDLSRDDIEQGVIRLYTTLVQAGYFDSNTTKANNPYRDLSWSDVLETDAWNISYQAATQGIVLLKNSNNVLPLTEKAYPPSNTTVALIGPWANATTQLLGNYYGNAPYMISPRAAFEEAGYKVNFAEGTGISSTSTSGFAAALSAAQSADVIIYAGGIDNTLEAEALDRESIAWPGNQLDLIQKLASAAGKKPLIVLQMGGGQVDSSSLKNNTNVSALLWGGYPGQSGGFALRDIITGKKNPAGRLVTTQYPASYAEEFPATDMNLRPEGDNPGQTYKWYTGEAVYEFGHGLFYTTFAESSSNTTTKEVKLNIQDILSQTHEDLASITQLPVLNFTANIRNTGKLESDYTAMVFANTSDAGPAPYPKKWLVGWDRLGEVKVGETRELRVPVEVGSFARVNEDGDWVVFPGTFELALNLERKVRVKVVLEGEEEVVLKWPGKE
The assay is described as follows: Inhibition against Beta-xylosidase from Aspergillus niger at 1 mM; (ni=no inhibition).

Assay [2] addresses T2, Glucoamylase 1 (Rhizopus oryzae) (UniProt P07683).
T2 sequence (whole entry): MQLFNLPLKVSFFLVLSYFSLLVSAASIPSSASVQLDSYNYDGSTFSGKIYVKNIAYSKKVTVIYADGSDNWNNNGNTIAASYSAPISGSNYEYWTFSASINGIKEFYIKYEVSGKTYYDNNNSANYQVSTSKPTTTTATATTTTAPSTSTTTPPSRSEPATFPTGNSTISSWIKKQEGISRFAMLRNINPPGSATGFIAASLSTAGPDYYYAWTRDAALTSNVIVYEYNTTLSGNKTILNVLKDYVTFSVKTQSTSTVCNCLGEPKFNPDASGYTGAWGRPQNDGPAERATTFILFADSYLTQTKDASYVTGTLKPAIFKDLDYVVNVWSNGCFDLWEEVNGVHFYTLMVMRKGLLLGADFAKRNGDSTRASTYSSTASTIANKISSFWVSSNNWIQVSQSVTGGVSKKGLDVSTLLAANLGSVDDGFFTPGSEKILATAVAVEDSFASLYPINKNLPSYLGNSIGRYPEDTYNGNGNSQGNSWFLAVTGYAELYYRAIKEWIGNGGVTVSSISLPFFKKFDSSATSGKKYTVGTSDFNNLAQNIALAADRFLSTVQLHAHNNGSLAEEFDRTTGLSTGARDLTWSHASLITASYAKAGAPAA
The assay is described as follows: Percent inhibition against Amyloglucosidase from Rhizopus mold at 1 mM.

The target in assay [3] is T3, Alpha-glucosidase (Oryza sativa Japonica Group) (UniProt Q9LGC6).
T3 sequence (whole entry): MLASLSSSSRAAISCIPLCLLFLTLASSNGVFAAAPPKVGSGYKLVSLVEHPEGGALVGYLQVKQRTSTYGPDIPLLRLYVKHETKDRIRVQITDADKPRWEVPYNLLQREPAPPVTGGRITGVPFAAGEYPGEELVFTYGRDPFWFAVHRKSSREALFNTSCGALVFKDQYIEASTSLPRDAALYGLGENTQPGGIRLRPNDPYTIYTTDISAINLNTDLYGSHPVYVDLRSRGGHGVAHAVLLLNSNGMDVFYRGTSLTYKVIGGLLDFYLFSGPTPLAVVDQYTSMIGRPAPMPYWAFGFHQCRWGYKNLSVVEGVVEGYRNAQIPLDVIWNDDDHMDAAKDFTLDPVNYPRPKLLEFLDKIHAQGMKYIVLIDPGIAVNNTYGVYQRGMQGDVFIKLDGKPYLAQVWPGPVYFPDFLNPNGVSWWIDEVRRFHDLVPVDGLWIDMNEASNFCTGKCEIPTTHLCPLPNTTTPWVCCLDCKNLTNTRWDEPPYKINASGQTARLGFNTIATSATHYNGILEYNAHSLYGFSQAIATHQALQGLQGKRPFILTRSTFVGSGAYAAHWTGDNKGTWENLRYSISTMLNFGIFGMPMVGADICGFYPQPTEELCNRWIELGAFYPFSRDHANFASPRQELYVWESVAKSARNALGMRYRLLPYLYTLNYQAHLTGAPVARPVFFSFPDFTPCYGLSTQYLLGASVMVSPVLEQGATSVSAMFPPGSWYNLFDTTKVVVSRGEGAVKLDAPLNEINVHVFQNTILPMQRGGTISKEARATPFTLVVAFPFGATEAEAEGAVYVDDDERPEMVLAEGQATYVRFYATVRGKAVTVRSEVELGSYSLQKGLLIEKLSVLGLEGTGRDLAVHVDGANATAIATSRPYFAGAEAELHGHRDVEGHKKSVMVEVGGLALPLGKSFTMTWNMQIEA
As to the kind of experiment: Inhibition against Alpha Glucosidase from rice at 1 mM; (ni=no inhibition).

Assay [4] deals with Prunus dulcis. The assay is described as follows: Percent inhibition against Beta Glucosidase from Almonds at 1 mM.
Assay [5] concerns the target Beta-glucosidase A (Caldicellulosiruptor saccharolyticus) (UniProt P10482). As to the kind of experiment: Inhibition against Beta Glucosidase from Caldocellum saccharolyticum at 1 mM; (ni=no inhibition).
The target of assay [6] is Glucoamylase (Aspergillus niger) (UniProt P69328). As to the kind of experiment: Percent inhibition against Amyloglucosidase from Aspergillus niger at 1 mM concentration.
Chain of Glucoamylase (Aspergillus niger) (P69328 whole entry): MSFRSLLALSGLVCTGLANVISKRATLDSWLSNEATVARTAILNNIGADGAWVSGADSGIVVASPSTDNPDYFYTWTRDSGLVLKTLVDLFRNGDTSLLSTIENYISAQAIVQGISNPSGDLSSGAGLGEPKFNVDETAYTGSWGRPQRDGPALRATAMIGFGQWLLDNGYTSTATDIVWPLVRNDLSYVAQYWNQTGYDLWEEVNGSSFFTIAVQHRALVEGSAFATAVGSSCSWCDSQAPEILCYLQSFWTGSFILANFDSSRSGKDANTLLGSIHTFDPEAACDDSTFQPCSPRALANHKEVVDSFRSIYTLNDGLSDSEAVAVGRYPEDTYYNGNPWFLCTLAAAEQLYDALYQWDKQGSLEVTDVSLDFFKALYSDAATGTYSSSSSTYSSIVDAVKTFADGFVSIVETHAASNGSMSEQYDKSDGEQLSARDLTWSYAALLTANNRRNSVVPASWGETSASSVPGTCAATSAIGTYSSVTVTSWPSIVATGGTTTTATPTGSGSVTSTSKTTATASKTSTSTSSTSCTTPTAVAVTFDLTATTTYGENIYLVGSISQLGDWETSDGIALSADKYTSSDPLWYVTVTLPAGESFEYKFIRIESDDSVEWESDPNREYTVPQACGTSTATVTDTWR
Assay [7] can be described thus: Inhibition against Alpha Glucosidase from yeast at 1 mM; (ni=no inhibition).
The target of assay [8] is T2, Glucoamylase 1 (Rhizopus oryzae). As to the kind of experiment: Inhibition against Amyloglucosidase from Rhizopus mold at 1 mM; (ni=no inhibition).
In assay [9] the target is Glucoamylase (Aspergillus niger) (UniProt P69328). The assay is described as follows: Inhibition against Amyloglucosidase from Aspergillus niger at 1 mM; (ni=no inhibition).
Assay [10] is described as follows: Inhibitory concentration against Beta Glucosidase from Almonds. The arrangement: species or system Prunus dulcis.
For assay [11], the target named is Beta-glucosidase A (Caldicellulosiruptor saccharolyticus) (UniProt P10482). The assay is described as follows: Percent inhibition against Beta Glucosidase from Caldocellum saccharolyticum at 1 mM.
Chain of Beta-glucosidase A (Caldicellulosiruptor saccharolyticus) (P10482 whole entry): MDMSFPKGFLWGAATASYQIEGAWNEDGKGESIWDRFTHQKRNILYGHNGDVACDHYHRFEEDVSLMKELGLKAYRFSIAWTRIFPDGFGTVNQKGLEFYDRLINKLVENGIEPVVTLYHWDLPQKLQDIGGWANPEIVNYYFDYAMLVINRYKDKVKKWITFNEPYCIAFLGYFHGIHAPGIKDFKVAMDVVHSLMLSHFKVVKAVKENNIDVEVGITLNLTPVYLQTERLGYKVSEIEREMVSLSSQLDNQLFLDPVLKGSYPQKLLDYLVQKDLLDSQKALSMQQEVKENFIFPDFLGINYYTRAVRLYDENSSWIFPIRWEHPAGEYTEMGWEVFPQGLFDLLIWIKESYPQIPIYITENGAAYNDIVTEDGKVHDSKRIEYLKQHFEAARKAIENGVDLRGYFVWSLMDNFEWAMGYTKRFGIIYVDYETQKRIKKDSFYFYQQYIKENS
Assay [12] concerns Prunus dulcis. The assay is described as follows: Inhibition against Beta Glucosidase from Almonds at 1 mM; (ni=no inhibition).

In general, inhibition refers to the drop in the measured response relative to a control, in per cent. For the compound `OC1C=CC(NCc2ccccc2)C(O)C1O` (stereo in doubt), the inhibition result in assay [1], in assay [3], in assay [5] and in assay [7] was “inactive” each time. Also, the inhibition in assay [2] turned out to be 72%; with Prunus dulcis [4], 51%; in assay [6], 63%.
Consider `OC1C=CC(NCc2ccc(-c3ccccc3)cc2)C(O)C1O` (stereo in doubt), for which the inhibition result in [1], in assay [8], in [3], in assay [9], in assay [5] and in [7] was “inactive” throughout. This compound also registered an inhibition in the assay on Prunus dulcis [4] of 56%.
Usually IC50 stands for the concentration at which inhibition is half-maximal. Low values mean greater potency, high ones weaker potency. For the compound `Oc1ccc(CNC2C=CC(O)C(O)C2O)cc1` (stereo in doubt; 4f), the IC50 in assay [10] was 72 µM.
`CCCCCCCCN(CCCCCCCC)C1C=CC(O)C(O)C1O` (racemic): the inhibition entry (in assay [1]; in [8]; in [3]; in [9]; in the assay on Prunus dulcis [12]; in [7]) was “inactive” in each case. In assay [11], this compound showed an inhibition of 83%.
For `COc1cc(O)c(CNC2C=CC(O)C(O)C2O)c(Br)c1` (single isomer, unassigned), the inhibition entry (in [1]; in assay [8]; in [3]; in assay [9]; in assay [5]; in the assay on Prunus dulcis [12]) was “inactive” each time. The inhibition entry in [7] was “inactive”.
Consider `COc1cc(O)c(CNC2C=CC(O)C(O)C2O)c(Br)c1` (stereo in doubt; 4l), for which the inhibition entry (in [1]; in assay [8]; in [3]; in [9]; in the assay on Prunus dulcis [12]; in assay [7]) was “inactive” throughout. Moreover, the inhibition in assay [11] was 43%.
As for `OC1C=CC(NCc2ccc(Cl)cc2)C(O)C1O` (stereo in doubt; 4h), the inhibition result in assay [1], in assay [8], in [3], in assay [9] and in assay [7] was “inactive” throughout. Besides, the results for the inhibition (in the assay with Prunus dulcis [4]; in [11]) were 96% and 84%, respectively.
Consider `CCCN(CCC)C1C=CC(O)C(O)C1O` (racemic), for which the inhibition result in assay [1], in assay [8], in [3], in assay [9], in assay [5] and in assay [7] was “inactive” in each case. This compound also had an inhibition with Prunus dulcis [4] of 36%.
Turning to `CCCCCCNC1C=CC(O)C(O)C1O` (racemic), the inhibition result in assay [1], in assay [8], in assay [3], in [9] and in assay [7] was “inactive” each time. Besides, the inhibition with Prunus dulcis [4] was found to be 92%. Inhibition in assay [10] was half-maximal at 32 µM (IC50).
Turning to `OC1C=CC(N(CCc2ccccc2)CCc2ccccc2)C(O)C1O` (racemic), the inhibition entry in assay [1], in [8], in assay [3], in assay [9], in [5] and in [7] was “inactive” in each case. In the assay with Prunus dulcis [4], the inhibition is 36%.
Take `OC1C=CC(NCCc2ccccc2)C(O)C1O` (racemic): the inhibition entry in assay [1], in assay [8], in assay [3], in assay [9] and in assay [7] was “inactive” throughout. In addition, the inhibition in the assay on Prunus dulcis [4] was 86%. Also, half-maximal inhibition in assay [10] (IC50) was put at 32 µM.
On to `OC1C=CC(NCc2ccc(-c3ccccc3)cc2)C(O)C1O` (stereo in doubt; 4i), for which the inhibition entry in [1], in assay [8], in [3], in assay [9] and in assay [7] was “inactive” each time. The figures for the inhibition (in the assay with Prunus dulcis [4]; in assay [11]) were 97% and 94%, respectively.
Take `OC1C=CC(NCc2ccc(Oc3ccccc3)cc2)C(O)C1O` (stereo in doubt): the inhibition result (in assay [1]; in assay [8]; in [3]; in assay [9]; in [5]; in the assay on Prunus dulcis [12]) was “inactive” throughout. The inhibition result in assay [7] was “inactive”.
With `NC1C=CC(O)C(O)C1O` (stereo in doubt; (+)-3), the inhibition entry (in assay [1]; in assay [8]; in assay [3]; in assay [9]; in assay [5]; in the assay with Prunus dulcis [12]) was “inactive” throughout. In addition, in assay [7], the inhibition entry is “inactive”.
As to `NC1C=CC(O)C(O)C1O` (single isomer, unassigned; (-)), the inhibition entry (in assay [1]; in assay [8]; in assay [3]; in assay [9]; in [5]; in the assay on Prunus dulcis [12]) was “inactive” throughout. Moreover, the inhibition result in assay [7] is “inactive”.
`OC1C=CC(NCc2ccc(Oc3ccccc3)cc2)C(O)C1O` (stereo in doubt; 4j): the inhibition result in [1], in assay [8], in assay [3], in assay [9] and in assay [7] was “inactive” in each case. The results for the inhibition (with Prunus dulcis [4]; in assay [11]) were 97% and 71%, respectively.
